1 compound from US20030162777A1, “Novel N-acylated heterocycles” (Recordati S.A., priority 2001, published 2003) can be followed below.

Assay [1] concerns the target T1, human 5HT1A-serotonergic receptor (Homo sapiens, UniProt P08908).
T1 construct: expressed in transfected cells; host or cells: HeLa (human cell line), stably transfected; cell membranes used
T1 sequence (P08908 1-422): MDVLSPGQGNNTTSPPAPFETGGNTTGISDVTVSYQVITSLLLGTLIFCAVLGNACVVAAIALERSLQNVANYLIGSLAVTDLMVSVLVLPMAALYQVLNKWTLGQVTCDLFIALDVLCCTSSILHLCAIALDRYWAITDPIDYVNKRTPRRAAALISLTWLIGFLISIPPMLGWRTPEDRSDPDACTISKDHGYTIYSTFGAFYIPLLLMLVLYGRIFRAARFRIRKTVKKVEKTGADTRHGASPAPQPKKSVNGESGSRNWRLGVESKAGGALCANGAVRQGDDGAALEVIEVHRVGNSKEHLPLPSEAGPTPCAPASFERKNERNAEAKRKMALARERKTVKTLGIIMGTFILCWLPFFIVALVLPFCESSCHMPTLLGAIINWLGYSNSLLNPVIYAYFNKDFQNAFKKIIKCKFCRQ
Kind of assay: Radioligand binding to recombinant 5-HT1A receptors. The following applies: [3H]8-OH-DPAT 1 nM, membranes of HeLa cells with human 5-HT1A receptor; Ki from IC50 by Cheng & Prusoff; read-out: Binding affinity for 5HT1A receptors, Ki. The method in brief: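 Membranes from HeLa cells stably expressing human 5-HT1A incubated 30 min at 30 °C with 1 nM [3H]8-OH-DPAT and compound in 50 mM Tris-HCl pH 7.4, 2.5 mM MgCl2, […] pargyline. Nonspecific binding defined with 10 μM 5-HT; filtration readout, IC50 converted to Ki via Cheng–Prusoff.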

The next assay relates to conscious rats. Kind of assay: Effect on cystometric parameters in conscious rats after oral administration. The format is in vivo, rat. The following applies: 3 mg/kg p.o., 1-5 h after treatment, versus vehicle. The procedure:
Male Sprague-Dawley rats [Crl: CD° (SD) BR] of 300-400 g supplied by Charles River Italia were used. The animals were housed with free access to food and water and maintained on a forced 12-hour-light/12-hour-dark cycle at 22-24° C. of temperature, except during the experiment. To quantify urodynamic parameters in conscious rats, cystometrographic studies were performed according to the procedure previously reported (Guarneri et al., Pharmacol. Res. 24: 175, 1991).
Briefly, the rats were anaesthetised by intraperitoneal administration of 3 ml/kg of Equithensin solution (pentobarbital 30 mg/kg and chloral hydrate 125 mg/kg) and placed in a supine position. An approximately-10-mm-long midline incision was made in the shaved and cleaned abdominal wall. The urinary bladder was gently freed from adhering tissues, emptied and then cannulated via an incision in the bladder body, using a polyethylene cannula (0.58-mm internal diameter, 0.96-mm external diameter) which was permanently sutured with silk thread. The cannula was exteriorised through a subcutaneous tunnel in the retroscapular area, where it was connected to a plastic adapter in order to avoid the risk of removal by the animal. For drug testing, the rats were utilised one day after implantation.
On the day of the experiment, the rats were placed in modified Bollman cages, i.e. restraining cages that were large enough to permit the rats to adopt a normal crouched posture, but narrow enough to prevent turning around. […] The intraluminal-pressure signal during infusion of saline into the bladder was continuously recorded on a polygraph (Rectigraph-8K San-ei with BM614/2 amplifier from Biomedica Mangoni) and, from the cystometrogram, two urodynamic parameters were evaluated: bladder volume capacity (BVC) and micturition pressure (MP). […] Basal BVC and MP values were evaluated as mean of the values observed in the cystometrograms recorded in an initial period of 30-60 minutes. […] The bladder infusion restarted and changes in BVC and MP were evaluated from the mean values obtained in the cystometrograms observed during 1, 2, 3, 4 and 5 hours after treatment. […]
All data were expressed as mean±standard error. Time-course data were analysed by S.A.S./STAT software, version 6.12. The difference between vehicle and active-treatment effect was evaluated by: General Linear Model Procedure—Repeated Measures Analysis of Variance: Univariate test of Hypotheses for within Subject Effects—Analysis of Variance of Contrast Variables. […]

One may read the Ki as the equilibrium dissociation constant of an inhibitor or competing ligand from its target. For `O=C(C1CCCCC1)N1c2ccccc2CCC1CN1CCN(c2cccc3[nH]ccc23)CC1` (racemic) [Example 1, (±)1-(1-cyclohexanecarbonyl-1,2,3,4-tetrahydroquinoline-2-ylmethyl)-4-(4-indolyl)piperazine], the inhibitory constant (Ki) in assay [1] was 3.3 nM. Further, in the assay with conscious rats, the “effect on bladder volume capacity (BVC)” value was “effective in increasing the bladder volume capacity” and the “effect on micturition pressure (MP)” value was “without significant effects”.
